Values of other authors, collected in paper PMC10784415 (Developmental dynamics : an official publication of the …, 2023).

Tested on: tooth buds
Settings: animal studies; cited from earlier work

COc1cc2nccc(Oc3ccc(NC(=O)Nc4cc(C)on4)c(Cl)c3)c2cc1OC [tivozanib]
Effect on tooth buds: shallower or narrower tooth buds
